Source: ChEMBL document CHEMBL5727681, “Alkoxy compounds for disease treatment” (2020)

Test: In Vitro Isomerase Inhibition Assay: Isomerase inhibition reactions were performed essentially as described (Stecher et al., J Biol. Chem. 274:8577-85 (1999).

SMILES | IC50
NCCCc1cccc(OCC2CCCCC2)c1 | < 100 nM
CCC(CC)COc1cccc(CCCN)c1 | < 100 nM
NCCOc1cccc(OCC2CCCCCC2)c1 | < 100 nM
NCCC(O)c1cccc(OCC2(O)CCCCC2)c1 (stereo unspecified) | < 100 nM
CCCC(CCC)COc1cccc(CCCN)c1 | < 100 nM
NCCC(=O)c1cccc(OCC2CCCCCC2)c1 | < 100 nM
NCCOc1cccc(OCC2CCCCC2)c1 | < 100 nM
NCCCc1cccc(OCC2(O)CCCCC2)c1 | < 100 nM
NCC(O)Cc1cccc(OCC2CCCCC2)c1 (stereo unspecified) | < 100 nM
CCCC(O)(CCC)COc1cccc(C(O)CCN)c1 (stereo unspecified) | < 100 nM
NCCC(=O)c1cccc(OCC2CCCCC2)c1 | < 100 nM
